Reference: US9771361B2, “Inhibitors of influenza viruses replication” (priority 2013, dated 2017)

Tests used:
Assay type in all cases: cell-based, influenza A virus
Conditions in all cases: read-out: Cell Protection Assay EC50 ± SD Comp (1)
[1] = tested on: A/California/07/2009 NYMC X-179A
A/Uruguay/716/2007 = tested on: A/Uruguay/716/2007
A/WS/33 = tested on: A/WS/33
A/Wisconsin/67/2005 = tested on: A/Wisconsin/67/2005
A/Texas/12/2007 = tested on: A/Texas/12/2007
A/Port Chalmers/1/73 = tested on: A/Port Chalmers/1/73
A/Virginia/01/2006 = tested on: A/Virginia/01/2006
A/Georgia/20/2006 = tested on: A/Georgia/20/2006
A/Texas/48/2009 = tested on: A/Texas/48/2009
A/Nebraska/1/2006 = tested on: A/Nebraska/1/2006
A/NWS/33 = tested on: A/NWS/33
A/Mexico/4108/2009 = tested on: A/Mexico/4108/2009
A/California/07/2009 = tested on: A/California/07/2009
A/Puerto Rico/8/34 = tested on: A/Puerto Rico/8/34
A/St. Petersburg/8/2006 = tested on: A/St. Petersburg/8/2006
A/Weiss/43 = tested on: A/Weiss/43

O=C(O)[C@H]1C2CCC(CC2)C1Nc1nc(-c2c[nH]c3ncc(F)cc23)ncc1F (stereo partly shown) [Compound (1)]
EC50 [1]: 2.7 ± 1.8 nM
EC50 (A/Uruguay/716/2007): 3.5 ± 5.1 nM
EC50 (A/WS/33): 3.2 ± 4.3 nM
EC50 (A/Wisconsin/67/2005): 1.8 ± 0.24 nM
EC50 (A/Texas/12/2007): 0.65 ± 0.22 nM
EC50 (A/Port Chalmers/1/73): 0.54 ± 0.11 nM
EC50 (A/Virginia/01/2006): 0.42 ± 0.24 nM
EC50 (A/Georgia/20/2006): 2.6 ± 3.8 nM
EC50 (A/Texas/48/2009): 2.8 ± 3.2 nM
EC50 (A/Nebraska/1/2006): 2.1 ± 1.3 nM
EC50 (A/NWS/33): 0.73 ± 0.1 nM
EC50 (A/Mexico/4108/2009): 2.7 ± 1.8 nM
EC50 (A/California/07/2009): 1.8 ± 1.6 nM
EC50 (A/Puerto Rico/8/34): 3.2 ± 1.8 nM
EC50 (A/St. Petersburg/8/2006): 0.88 ± 0.69 nM
EC50 (A/Weiss/43): 0.31 ± 0.23 nM
